Columns and labels:
[1] = system: Human immunodeficiency virus 1; assay: Antiviral activity against HIV1 92HT599 infected in human MT2 cells assessed as reduction in p24 production in absence of serum by ELISA; type: functional, organism-based
[2] = system: Human immunodeficiency virus 1; assay: Antiviral activity against HIV1 92HT599 infected in human MT2 cells assessed as reduction in p24 production in presence of 40% serum by ELISA; type: functional, organism-based; conditions: Human immunodeficiency virus 1, 92HT599, MT2
[3] = Human immunodeficiency virus 1, 92HT599, MT2

| SMILES | IC50 [1] | IC50 [2] | IC50 [1, 3] |
| --- | --- | --- | --- |
| CC(C)C1=C2[C@H]3CC[C@@H]4[C@@]5(C)CC[C@H](OC(=O)[C@H]6C[C@@H](C(=O)O)C6(C)C)C(C)(C)[C@@H]5CC[C@@]4(C)[C@]3(C)CC[C@@]2(c2ncc(-c3ccc(Cl)cc3)n2CCN(C)C)CC1=O [listing 1 of 2 here] | < 0.01 µM | > 0.05 µM | – |
| CC(C)C1=C2[C@H]3CC[C@@H]4[C@@]5(C)CC[C@H](OC(=O)[C@H]6C[C@@H](C(=O)O)C6(C)C)C(C)(C)[C@@H]5CC[C@@]4(C)[C@]3(C)CC[C@@]2(c2ncc(-c3ccc(F)cc3)[nH]2)CC1=O | – | > 0.05 µM | < 0.01 µM |
| CC(C)C1=C2[C@H]3CC[C@@H]4[C@@]5(C)CC[C@H](OC(=O)[C@H]6C[C@@H](C(=O)O)C6(C)C)C(C)(C)[C@@H]5CC[C@@]4(C)[C@]3(C)CC[C@@]2(c2ncc(-c3ccccc3)[nH]2)CC1=O | – | 0.01 to 0.05 µM | < 0.01 µM |

The next lines start with the values.

| IC50 [1] | IC50 [2] | IC50 [1, 3] | SMILES |
| --- | --- | --- | --- |
| – | < 0.01 µM | < 0.01 µM | CC(C)C1=C2[C@H]3CC[C@@H]4[C@@]5(C)CC[C@H](OC(=O)[C@H]6C[C@@H](C(=O)O)C6(C)C)C(C)(C)[C@@H]5CC[C@@]4(C)[C@]3(C)CC[C@@]2(c2nnc(-c3ccc(Cl)cc3)o2)CC1=O |
| – | – | 0.01 to 0.05 µM | CC(C)C1=C2[C@H]3CC[C@@H]4[C@@]5(C)CC[C@H](OC(=O)[C@H]6C[C@@H](C(=O)O)C6(C)C)C(C)(C)[C@@H]5CC[C@@]4(C)[C@]3(C)CC[C@@]2(c2ncc(-c3ccc(Cl)cc3)n2CCN(C)C)CC1=O [listing 2 of 2 here] |
| – | 0.01 to 0.05 µM | < 0.01 µM | CC(C)C1=C2[C@H]3CC[C@@H]4[C@@]5(C)CC[C@H](OC(=O)[C@H]6C[C@@H](C(=O)O)C6(C)C)C(C)(C)[C@@H]5CC[C@@]4(C)[C@]3(C)CC[C@@]2(c2ncc(-c3ccc(Cl)cc3)[nH]2)CC1=O |
